Target: T1, AsCas12a (Acidaminococcus sp. BV3L6, UniProt U2UMQ6)
T1 construct: gene cas12a; purified wild-type protein, no crRNA mentioned in assay
Test: radiometric TLC ATPase assay ([…] release)
Assay type: biochemical
Settings: 200 µM cold ATP, 200 pM [γ-32P]ATP; 12 mM MgCl2, pH 7.5, 37 °C, 1 h; no DNA; labelled compound

T1 sequence (U2UMQ6 whole entry, looked up): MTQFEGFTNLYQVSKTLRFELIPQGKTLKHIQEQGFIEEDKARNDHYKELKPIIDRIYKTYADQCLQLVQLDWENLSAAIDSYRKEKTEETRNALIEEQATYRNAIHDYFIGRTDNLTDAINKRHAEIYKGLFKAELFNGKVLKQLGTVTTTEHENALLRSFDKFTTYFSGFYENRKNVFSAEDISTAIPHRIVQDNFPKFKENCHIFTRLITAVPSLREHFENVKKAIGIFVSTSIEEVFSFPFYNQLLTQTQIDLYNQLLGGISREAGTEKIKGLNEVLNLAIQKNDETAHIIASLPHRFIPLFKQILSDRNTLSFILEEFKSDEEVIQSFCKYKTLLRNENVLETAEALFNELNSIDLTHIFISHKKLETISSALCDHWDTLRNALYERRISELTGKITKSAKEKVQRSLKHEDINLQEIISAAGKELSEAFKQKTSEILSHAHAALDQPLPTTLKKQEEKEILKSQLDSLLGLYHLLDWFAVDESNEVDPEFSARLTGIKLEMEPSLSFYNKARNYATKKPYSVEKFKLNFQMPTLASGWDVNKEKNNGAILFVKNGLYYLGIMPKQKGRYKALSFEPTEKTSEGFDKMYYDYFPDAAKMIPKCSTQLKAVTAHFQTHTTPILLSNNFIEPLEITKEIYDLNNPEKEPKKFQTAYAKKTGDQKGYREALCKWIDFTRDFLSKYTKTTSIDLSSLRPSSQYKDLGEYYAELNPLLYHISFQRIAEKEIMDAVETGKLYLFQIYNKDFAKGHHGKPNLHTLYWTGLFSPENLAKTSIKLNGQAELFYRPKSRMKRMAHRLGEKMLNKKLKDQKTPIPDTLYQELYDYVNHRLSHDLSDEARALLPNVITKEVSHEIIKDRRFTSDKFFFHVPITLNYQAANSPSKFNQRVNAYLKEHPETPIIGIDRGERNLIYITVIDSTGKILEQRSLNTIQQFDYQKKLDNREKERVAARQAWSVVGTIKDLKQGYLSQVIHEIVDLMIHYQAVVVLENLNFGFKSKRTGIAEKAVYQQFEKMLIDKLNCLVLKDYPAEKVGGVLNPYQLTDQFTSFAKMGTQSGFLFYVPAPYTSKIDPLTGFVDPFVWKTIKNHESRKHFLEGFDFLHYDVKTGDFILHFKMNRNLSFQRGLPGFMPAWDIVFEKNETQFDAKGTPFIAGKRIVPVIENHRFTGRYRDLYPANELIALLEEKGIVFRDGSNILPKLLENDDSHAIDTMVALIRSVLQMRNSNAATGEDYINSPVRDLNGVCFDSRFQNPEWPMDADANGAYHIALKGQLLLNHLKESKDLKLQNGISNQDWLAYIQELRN

Structure (SMILES): Nc1ncnc2c1ncn2[C@@H]1O[C@H](COP(=O)(O)OP(=O)(O)OP(=O)(O)O)[C@@H](O)[C@H]1O [ATP]
- radiometric TLC ATPase assay (32Pi release): AsCas12a catalyzed ATP hydrolysis in a concentration and time-dependent manner

Source: publication doi:10.1101/2025.06.05.658205v3, “AsCas12a Exhibits Intrinsic, DNA-Independent ATPase Activity” (biorxiv, 2025)
